Assay [1] has as its system Mus musculus. The assay can be described thus: Antitumor activity against mouse macrophages after day 21 at dose 2.50 mg/kg by peroral administration. The following applies: dose 2.5 mg/kg; route oral. It is filed as functional.
Assay [2] concerns Mus musculus. As to the kind of experiment: Antitumor activity against mouse macrophages after day 28 at dose 2.50 mg/kg by peroral administration. As to conditions: dose 2.5 mg/kg; route oral. The class given is functional.
In assay [3] the test system is Mus musculus. As to the kind of experiment: Mouse survived after 28 days at 2.5 mg/kg; 3/10. The class given is functional.
Assay [4] has as its system Mus musculus. The assay can be described thus: Antitumor activity against mouse macrophages after day 14 at dose 2.50 mg/kg by peroral administration. The class given is functional. The following applies: dose 2.5 mg/kg; route oral.
In assay [5] the test system is Mus musculus. As to the kind of experiment: Antitumor activity against mouse macrophages after day 7 at dose 2.50 mg/kg by peroral administration. It is filed as functional. As to conditions: dose 2.5 mg/kg; route oral.
In assay [6] the test system is Mus musculus. The assay can be described thus: Mouse survived after 28 days at 2.5 mg/kg; 8/10. The class given is functional.
Assay [7] is described as follows: Antitumor activity against Abelson-8.1 cells at concentration 3 ug/mL and at 72 hr using direct cytotoxicity assay. The class given is functional, Mus musculus.
The subject of assay [8] is L1210. As to the kind of experiment: Antitumor activity against L1210 cells at concentration 1 ug/mL and at 72 hr using Activated Macrophage Cytotoxicity assay. The class given is functional, Mus musculus.
Assay [9] relates to L1210. As to the kind of experiment: Antitumor activity against L1210 cells at concentration 5 ug/mL and at 72 hr using direct cytotoxicity assay. It is filed as functional, Mus musculus.
The test system of assay [10] is YAC-1. The assay can be described thus: Antitumor activity against YAC-1 tumor cells at concentration 1 ug/mL and at 72 hr using Activated Macrophage Cytotoxicity assay. It is filed as functional, Mus musculus.
The subject of assay [11] is P815. The assay can be described thus: Antitumor activity against P815 cells at concentration 3 ug/mL and at 72 hr using direct cytotoxicity assay. It is filed as functional, Mus musculus.
The subject of assay [12] is Mus musculus. The assay can be described thus: Antitumor activity against mouse macrophages after day 28 at dose 0.25 mg/kg by peroral administration. As to conditions: route oral. The class given is functional.
In assay [13] the test system is L1210. As to the kind of experiment: Antitumor activity against L1210 cells at concentration 1 ug/mL and at 72 hr using direct cytotoxicity assay. It is filed as functional, Mus musculus.
In assay [14] the test system is L1210. The assay can be described thus: Antitumor activity against L1210 cells at concentration 5 ug/mL and at 72 hr and at 72 hr using Activated Macrophage Cytotoxicity assay. It is filed as functional, Mus musculus.
For assay [15], the system named is L1210. The assay can be described thus: Antitumor activity against L1210 cells at concentration 3 ug/mL and at 72 hr using direct cytotoxicity assay. The class given is functional, Mus musculus.
Assay [16] has as its system Mus musculus. As to the kind of experiment: Mouse survived after 28 days at 0.25 mg/kg; 3/10. The class given is functional.
Assay [17] deals with L1210. The assay can be described thus: Antitumor activity against L1210 cells at concentration 3 ug/mL using Activated Macrophage Cytotoxicity assay. It is filed as functional, Mus musculus.
The nature of assay [18]: Antitumor activity against Abelson-8.1 cells at concentration 5 ug/mL and at 72 hr using Activated Macrophage Cytotoxicity assay. The class given is functional, Mus musculus.
Assay [19] is described as follows: Antitumor activity against Abelson-8.1 cells at concentration 5 ug/mL and at 72 hr using direct cytotoxicity assay. The class given is functional, Mus musculus.
In assay [20] the test system is P815. The assay can be described thus: Antitumor activity against P815 cells at concentration 5 ug/mL and at 72 hr using direct cytotoxicity assay. It is filed as functional, Mus musculus.
A short description of assay [21]: Antitumor activity against Abelson-8.1 cells at concentration 1 ug/mL and at 72 hr using direct cytotoxicity assay. The class given is functional, Mus musculus.
The subject of assay [22] is YAC-1. As to the kind of experiment: Antitumor activity against YAC-1 tumor cells at concentration 3 ug/mL and at 72 hr using direct cytotoxicity assay. It is filed as functional, Mus musculus.
In assay [23] the test system is Mus musculus. As to the kind of experiment: Antitumor activity against mouse macrophages after day 14 at dose 0.25 mg/kg by peroral administration. It is filed as functional. The following applies: route oral.
The subject of assay [24] is Mus musculus. The assay can be described thus: Antitumor activity against mouse macrophages after day 21 at dose 0.25 mg/kg by peroral administration. The class given is functional. The following applies: route oral.
In assay [25] the test system is Mus musculus. As to the kind of experiment: Mouse survived after 28 days at 2.5 mg/kg; 6/10. It is filed as functional.
The test system of assay [26] is YAC-1. The assay can be described thus: Antitumor activity against YAC-1 tumor cells at concentration 1 ug/mL and at 72 hr using direct cytotoxicity assay. It is filed as functional, Mus musculus.
In assay [27] the test system is YAC-1. The assay can be described thus: Antitumor activity against YAC-1 tumor cells at concentration 3 ug/mL and at 72 hr using Activated Macrophage Cytotoxicity assay. The class given is functional, Mus musculus.
Assay [28] has as its system P815. As to the kind of experiment: Antitumor activity against P815 cells at concentration 5 ug/mL and at 72 hr using Activated Macrophage Cytotoxicity assay. It is filed as functional, Mus musculus.
The subject of assay [29] is P815. As to the kind of experiment: Antitumor activity against P815 cells at concentration 1 ug/mL and at 72 hr using direct cytotoxicity assay. It is filed as functional, Mus musculus.
Assay [30] can be described thus: Antitumor activity against Abelson-8.1 cells at concentration 3 ug/mL and at 72 hr using Activated Macrophage Cytotoxicity assay. It is filed as functional, Mus musculus.
For assay [31], the system named is YAC-1. The assay can be described thus: Antitumor activity against YAC-1 tumor cells at concentration 5 ug/mL and at 72 hr using Activated Macrophage Cytotoxicity assay. It is filed as functional, Mus musculus.
Assay [32] relates to P815. The assay can be described thus: Antitumor activity against P815 cells at concentration 3 ug/mL and at 72 hr using Activated Macrophage Cytotoxicity assay. It is filed as functional, Mus musculus.
The test system of assay [33] is YAC-1. As to the kind of experiment: Antitumor activity against YAC-1 tumor cells at concentration 5 ug/mL and at 72 hr using direct cytotoxicity assay. The class given is functional, Mus musculus.
The test system of assay [34] is Mus musculus. The assay can be described thus: Antitumor activity against mouse macrophages after day 7 at dose 0.25 mg/kg by peroral administration. The class given is functional. As to conditions: route oral.
Assay [35] relates to P815. The assay can be described thus: Antitumor activity against P815 cells at concentration 1 ug/mL and at 72 hr using Activated Macrophage Cytotoxicity assay. The class given is functional, Mus musculus.
A short description of assay [36]: Antitumor activity against Abelson-8.1 cells at concentration 1 ug/mL and at 72 hr using Activated Macrophage Cytotoxicity assay. The class given is functional, Mus musculus.
Assay [37] concerns L1210. As to the kind of experiment: Antitumor activity against L1210 cells at concentration 5 ug/mL and at 72 hr using Activated Macrophage Cytotoxicity assay. It is filed as functional, Mus musculus.
In assay [38] the test system is L1210. As to the kind of experiment: Antitumor activity against L1210 cells at concentration 3 ug/mL and at 72 hr using Activated Macrophage Cytotoxicity assay. It is filed as functional, Mus musculus.
Assay [39] deals with Mus musculus. The assay can be described thus: Mouse survived after 28 days at 0.25 mg/kg; 2/10. It is filed as functional.
The subject of assay [40] is Mus musculus. As to the kind of experiment: Mouse survived after 28 days at 0.25 mg/kg; 8/10. It is filed as functional.

Turning to `CCCCCCCCCCCCCCCCCCOC[C@@]1(COP(=O)([O-])OCC[N+](C)(C)C)CCCO1`, the Control was determined as 21% in [1], 32% in [2], 53% in [4] and 85% in assay [5]. For the same compound, the Survivors in assay [3] is reported as 3.
In the case of `CCCCCCCCCCCCCCCCCCOC[C@]1(COP(=O)([O-])OCC[N+](C)(C)C)CCCO1`, the Control in [1] stood at 8%; in assay [2] it was 13%; in assay [4] it was 28%; in assay [5], 70%. In addition, the Survivors in assay [6] stood at 8.
For `CCCCCCCCCCCCCCCCCCOCC1(COP(=O)([O-])OCC[N+](C)(C)C)CCCO1` (racemic; 5), the Viable cells in assay [7] amounted to 2.6%; in assay [8] it was 9.4%; in [9], 8.6%; in [10], 16%; in [11] it was 13%; in assay [13], 100%. For the same compound, the Viable cells was determined as 0.9% in assay [14]; 20% in assay [15]; 1.6% in [17]; 0.1% in [18]; 2% in [19]; 5.3% in assay [20]. Besides, the Viable cells in [21] is listed as 32%; in assay [22] it was 26%; in assay [26], 81%; in assay [27] it was 2.5%; in assay [28] it was 0.6%; in [29], 60%. Besides, the Viable cells in assay [30] is reported as 0.2%; in assay [31], 1.2%; in assay [32] it was 0.7%; in assay [33], 8.9%; in assay [35], 3.4%; in assay [36] it was 0.4%. Besides, the Control was 14% in assay [1]; 32% in assay [12]; 47% in assay [23]; 20% in [24]; 21% in assay [2]; 82% in [34]. The figures for the Control in assay [4] and in assay [5] were 38% and 76%, respectively. The results for the Survivors in [16] and in assay [25] were 3 and 6, respectively.
For `CCCCCCCCCCCCCCCCCCOCC1(COP(=O)([O-])OCC[N+](C)(C)C)CCCO1` (racemic; 8), the Viable cells in assay [7] is listed as 6.8%; in assay [8] it was 5.3%; in assay [9] it was 13%; in assay [11], 20%; in assay [13], 84%; in assay [37], 1.1%. The Viable cells is reported as 24% in assay [15]; 0.2% in [18]; 4.6% in assay [19]; 1.4% in [38]; 2.8% in assay [20]; 71% in [21]. For the same compound, the Viable cells in assay [22] came out at 14%; in assay [26] it was 92%; in assay [27] it was 1.6%; in assay [28], 1.3%; in assay [29], 68%; in assay [32], 1.8%. For the same compound, the Viable cells amounted to 4.5% in [33], 3.1% in assay [35] and 0.5% in assay [36]. Moreover, the Control is 37% in assay [12], 52% in [23], 21% in assay [24] and 90% in assay [34]. In [39], this compound came in with a Survivors of 2.
Consider `CCCCCCCCCCCCCCCCCCOCC1(COP(=O)([O-])OCC[N+](C)(C)C)CCCO1` (racemic; 9), for which the Viable cells is reported as 2.1% in [7]; 3.4% in assay [8]; 3.2% in assay [9]; 11% in assay [10]; 7% in [11]; 55% in assay [13]. Also, the Viable cells in assay [37] is reported as 0.2%; in [15], 7.7%; in assay [17] it was 0.6%; in assay [18], 0.4%; in assay [19] it was 1.8%; in assay [20] it was 2.6%. Also, the Viable cells is given as 8.6% in [21]; 22% in [22]; 60% in assay [26]; 2.3% in assay [27]; 0.3% in assay [28]; 16% in assay [29]. The Viable cells is recorded as 0.3% in assay [30]; 0.9% in [31]; 1.1% in assay [32]; 9% in assay [33]; 2.8% in assay [35]; 0.8% in assay [36]. Also, the Control in [12] was found to be 11%; in assay [23], 19%; in assay [24], 6%; in assay [34], 66%. Besides, the Survivors in assay [40] is 8.

These data come from ChEMBL document CHEMBL1129673, “Antitumor activity of the R- and S-enantiomers of RS-2-[[hydroxy[[2-[ (octadecyloxy)methyl]tetrahydrofuran-2-yl]methoxy]-phosphinyl]oxy]-N, N,N,-trimethylethylaminium hydroxide inner salt” (1996).
